Legend:
Assay type in all cases: in vivo
Settings in all cases: 250 g/h, evaluated after 13 days
Lolium perenne (LOLPE) [1] = test: Pre-emergence herbicidal glasshouse test, percentage damage
Procedure, shortened: (§1)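 Seeds are sown in pots, grown at 24/16 °C day/night with 14 h light and 65% humidity, then sprayed at day 1 (pre-emergence) or day 8 (post-emergence). The rate is 250 g/h in acetone/water 50:50 with 0.5% Tween 20. Damage is assessed 13 days later on a 1–5 scale.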

Setaria faberi (SETFA) [2] = test: as above
Procedure, shortened: as §1

[3] = tested on: Echinochloa crus-galli (ECHCG); test: as above
Procedure, shortened: as §1

[4] = tested on: Alopecurus myosuroides (ALOMY); test: as above
Procedure, shortened: as §1

Avena fatua (AVEFA) [5] = test: as above
Procedure, shortened: as §1

Lolium perenne (LOLPE) [6] = test: Post-emergence herbicidal glasshouse test, percentage damage
Procedure, shortened: as §1

[7] = tested on: Echinochloa crus-galli (ECHCG); test: as above
Procedure, shortened: as §1

Avena fatua (AVEFA) [8] = test: as above
Procedure, shortened: as §1

Setaria faberi (SETFA) [9] = test: as above
Procedure, shortened: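 Percentage damage was scored 13 days after treatment on a five-point scale (1=0-19% to 5=80-100%). Treatments were post-emergence sprays on 8-day-old wheat, barley and SETFA plants in a glasshouse (24/16 °C day/night, 14 h light, 65% humidity), using acetone/water 50:50 with 0.5% Tween 20 at the stated rates. Wheat additionally received cloquintocet-mexyl safener at 50 g/ha.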

Row | Structure (SMILES) | LOLPE PRE percentage damage (five point scale) (Lolium perenne (LOLPE) [1]) | SETFA PRE percentage damage (five point scale) (Setaria faberi (SETFA) [2]) | ECHCG PRE percentage damage (five point scale) [3] | ALOMY PRE percentage damage (five point scale) [4] | AVEFA PRE percentage damage (five point scale) (Avena fatua (AVEFA) [5]) | LOLPE POST percentage damage (five point scale) (Lolium perenne (LOLPE) [6]) | ECHCG POST percentage damage (five point scale) [7] | AVEFA POST percentage damage (five point scale) (Avena fatua (AVEFA) [8]) | SETFA POST percentage damage (five point scale) (Setaria faberi (SETFA) [9])
1 | CC#Cc1cc(C)c(C2C(=O)CC3(CCN(C(=O)c4nc(OC)n(C)n4)CC3)CC2=O)c(C)c1 [Compound A105] | 5 (5=80-100%) | 5 (5=80-100%) | 5 (5=80-100%) | 5 (5=80-100%) | 5 (5=80-100%) | 5 (5=80-100%) | 3 (3=40-59%) | 5 (5=80-100%) | 5 (5=80-100%)
2 | CC#Cc1cc(C)c(C2=C(OC(=O)OC)CC3(CCN(C(=O)c4cccnc4)CC3)CC2=O)c(C)c1 [Compound P35] | 5 (5=80-100%) | 5 (5=80-100%) | 5 (5=80-100%) | 5 (5=80-100%) | 5 (5=80-100%) | 5 (5=80-100%) | 5 (5=80-100%) | 5 (5=80-100%) | 5 (5=80-100%)
3 | CC#Cc1cc(C)c(C2=C(OC(=O)c3cccnc3)CC3(CCN(C(=O)c4cccnc4)CC3)CC2=O)c(C)c1 [Compound P36] | 5 (5=80-100%) | 5 (5=80-100%) | 5 (5=80-100%) |  | 4 (4=60-79%) | 5 (5=80-100%) | 5 (5=80-100%) | 5 (5=80-100%) | 5 (5=80-100%)
4 | CC#Cc1cc(C)c(C2=C(OC(=O)OC)CC3(CCN(C(=O)c4ccncn4)CC3)CC2=O)c(C)c1 [Compound P37] | 5 (5=80-100%) | 5 (5=80-100%) | 5 (5=80-100%) | 5 (5=80-100%) | 5 (5=80-100%) | 5 (5=80-100%) | 5 (5=80-100%) | 5 (5=80-100%) | 5 (5=80-100%)
5 | CC#Cc1cc(C)c(C2=C(OC(=O)OC)CC3(CCN(C(=O)c4cnccn4)CC3)CC2=O)c(C)c1 [Compound P38] | 5 (5=80-100%) | 5 (5=80-100%) | 5 (5=80-100%) | 5 (5=80-100%) | 5 (5=80-100%) | 5 (5=80-100%) | 5 (5=80-100%) | 5 (5=80-100%) | 5 (5=80-100%)
6 | CC#Cc1cc(C)c(C2=C(OC(=O)OC)CC3(CCN(C(=O)C4=NOC(C)(C)C4)CC3)CC2=O)c(C)c1 [Compound P39] | 5 (5=80-100%) | 5 (5=80-100%) | 5 (5=80-100%) | 5 (5=80-100%) | 5 (5=80-100%) | 5 (5=80-100%) | 5 (5=80-100%) | 5 (5=80-100%) | 5 (5=80-100%)
7 | CC#Cc1cc(C)c(C2=C(OC(=O)OC)CC3(CCN(C(=O)C4CCOCC4)CC3)CC2=O)c(C)c1 [Compound P40] | 5 (5=80-100%) | 5 (5=80-100%) | 5 (5=80-100%) | 5 (5=80-100%) | 5 (5=80-100%) | 5 (5=80-100%) | 5 (5=80-100%) | 5 (5=80-100%) | 5 (5=80-100%)
8 | CC#Cc1cc(C)c(C2=C(OC(C)=O)CC3(CCN(C(=O)CC#N)CC3)CC2=O)c(C)c1 [Compound P41] | 5 (5=80-100%) | 5 (5=80-100%) | 5 (5=80-100%) | 5 (5=80-100%) | 5 (5=80-100%) | 5 (5=80-100%) | 5 (5=80-100%) | 5 (5=80-100%) | 5 (5=80-100%)
9 | CC#Cc1cc(C)c(C2=C(OC(=O)OC)CC3(CCN(C(=O)C4CC4)CC3)CC2=O)c(C)c1 [Compound P42] | 5 (5=80-100%) | 5 (5=80-100%) | 5 (5=80-100%) | 5 (5=80-100%) | 5 (5=80-100%) | 5 (5=80-100%) | 5 (5=80-100%) | 5 (5=80-100%) | 5 (5=80-100%)
10 | CC#Cc1cc(C)c(C2=C(OC(=O)OC)CC3(CCN(C(=O)CC#N)CC3)CC2=O)c(C)c1 [Compound P43] | 5 (5=80-100%) | 5 (5=80-100%) | 5 (5=80-100%) | 5 (5=80-100%) | 5 (5=80-100%) | 5 (5=80-100%) | 4 (4=60-79%) | 5 (5=80-100%) | 5 (5=80-100%)
11 | CC#Cc1cc(C)c(C2=C(OC(=O)OC)CC3(CCN(C(=O)c4ccncc4)CC3)CC2=O)c(C)c1 [Compound P45] | 5 (5=80-100%) | 5 (5=80-100%) | 5 (5=80-100%) |  | 5 (5=80-100%) | 5 (5=80-100%) | 5 (5=80-100%) | 5 (5=80-100%) | 5 (5=80-100%)
12 | CC#Cc1cc(C)c(C2=C(OC(=O)OC)CC3(CCN(C(=O)NC(=O)c4ccccn4)CC3)CC2=O)c(C)c1 [Compound P46] | 5 (5=80-100%) | 5 (5=80-100%) | 5 (5=80-100%) |  | 2 (2=20-39%) | 5 (5=80-100%) | 5 (5=80-100%) | 5 (5=80-100%) | 5 (5=80-100%)
13 | CC#Cc1cc(C)c(C2=C(OC(=O)OC)CC3(CCN(C(=O)Cc4ccccn4)CC3)CC2=O)c(C)c1 [Compound P47] | 5 (5=80-100%) | 5 (5=80-100%) | 5 (5=80-100%) |  | 5 (5=80-100%) | 5 (5=80-100%) | 5 (5=80-100%) | 5 (5=80-100%) | 5 (5=80-100%)
